Drawing on patent publication US20240148821A1, “PHARMACEUTICAL USE OF CYCLIC PEPTIDE COMPOUND” (CHUGAI SEIYAKU KABUSHIKI KAISHA, priority 2021, published 2024), this text covers IC50 for nine molecules.

Each structure is given as a SMILES string. Numbered stars: 1 amine (or outer) side, 2 acyl side, 3 side chain; on linkers, the order of the positions; unused ones are H or OH. Bridge positions count the residues as written; N and C are the ends. Square brackets hold non-standard residues; d marks the D form. Peptide text beside a SMILES is read from it. * marks the point of attachment. hPhe(3-Cl-4-CF3) = N[C@@H](CCc1ccc(C(F)(F)F)c(Cl)c1)C(=O)O; hPhe(3-F,4-CF3) = N[C@@H](CCc1ccc(C(F)(F)F)c(F)c1)C(=O)O; NMePhe(4-CF3) = CN[C@@H](Cc1ccc(C(F)(F)F)cc1)C(=O)O; hPhe(4-CF3) = N[C@@H](CCc1ccc(C(F)(F)F)cc1)C(=O)O; NMePhe(4-Cl) = CN[C@@H](Cc1ccc(Cl)cc1)C(=O)O; NMeGly(cPent) = CN[C@H](C(=O)O)C1CCCC1; X67 = O=C([C@@H]1CCC[C@H]1N[*:1])[*:2]; NMeCha = CN[C@@H](CC1CCCCC1)C(=O)O; NEtLeu = CCN[C@@H](CC(C)C)C(=O)O; NMeF = CN[C@@H](Cc1ccccc1)C(=O)O; NMeI = CC[C@H](C)[C@H](NC)C(=O)O; NMeβAla = CN(CCC(=O)[*:2])[*:1]; Piperidide(4-Me) = CC1CCN(*)CC1; NMeD = CN[C@@H](CC(=O)O)C(=O)O; dNMeD = CN[C@H](CC(=O)O)C(=O)O; NMeL = CN[C@@H](CC(C)C)C(=O)O; Tle = CC(C)(C)[C@H](N)C(=O)O; NMeV = CN[C@H](C(=O)O)C(C)C; d(β3hA) = C[C@@H](N)CC(=O)O; Morpholide = C1CN(*)CCO1; NMeA = CN[C@@H](C)C(=O)O; NMeAib = CNC(C)(C)C(=O)O; Piperidide = C1CCN(*)CC1; Pyrrolidide = C1CCN(*)C1; Ac5c = NC1(C(=O)O)CCCC1; Aze = O=C(O)[C@@H]1CCN1; Sar = CNCC(=O)O

The experiment has as its target protein-protein interaction between Kras and SOS1 (biotin-tagged human Kras loaded with GDP, His-tagged human SOS1) (Homo sapiens (Human), UniProt P01116, G12D). Description: Protein-protein interaction inhibition between Kras and SOS1 (KrasG12D-SOS PPI) using AlphaScreen.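 Also: kras produced in E. coli, Ni-coupled donor beads and streptavidin acceptor beads, excitation 680 nm with emission detected at 520–620 nm via singlet oxygen transfer.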 Particulars: AlphaScreen; biotin-tagged human Kras loaded with GDP, His-tagged human SOS1; read-out: KRAS G12D-SOS PPI IC50. Type of experiment: biochemical.
As for `CC[C@H](C)[C@@H]1NC(=O)[C@H](CC(C)C)N(CC)C(=O)C[C@@H](C(=O)N2CCCCC2)N(C)C(=O)[C@H](C(C)C)N(C)C(=O)C2(CCCC2)NC(=O)[C@@H]2CCCN2C(=O)[C@H](CCc2ccc(C(F)(F)F)c(Cl)c2)NC(=O)CN(C)C(=O)[C@H](CC2CCCCC2)N(C)C(=O)[C@@H]2CCN2C(=O)[C@H](C)N(C)C1=O` [Compound 667] ([NEtLeu]I[NMeA][Aze][NMeCha][Sar][hPhe(3-Cl-4-CF3)]P[Ac5c][NMeV][NMeD]-Piperidide; lactam N-11), the IC50 amounted to 5.1 nM.

On to `CC[C@H](C)[C@@H]1NC(=O)[C@H](CC(C)C)N(C)C(=O)C[C@@H](C)NC(=O)[C@H]([C@@H](C)CC)N(C)C(=O)C2(CCCC2)NC(=O)[C@@H]2CCCN2C(=O)[C@H](CCc2ccc(C(F)(F)F)c(Cl)c2)NC(=O)CN(C)C(=O)[C@H](CC2CCCCC2)N(C)C(=O)[C@@H]2CCN2C(=O)[C@H](C)N(C)C1=O` [Compound 1654] (cyclo([Ac5c][NMeI][d(β3hA)][NMeL]I[NMeA][Aze][NMeCha][Sar][hPhe(3-Cl-4-CF3)]P)), for which the IC50 came out at 22 nM.

Turning to `CC[C@H](C)[C@@H]1NC(=O)[C@H](CC(C)C)N(C)C(=O)C[C@@H](C(=O)N2CCOCC2)N(C)C(=O)[C@H](C2CCCC2)N(C)C(=O)C2(CCCC2)NC(=O)[C@@H]2CCCN2C(=O)[C@H](CCc2ccc(C(F)(F)F)c(Cl)c2)NC(=O)CN(C)C(=O)[C@H](C2CCCC2)N(C)C(=O)[C@@H]2CCN2C(=O)[C@H](C)NC1=O` [Compound 1309] ([NMeL]IA[Aze][NMeGly(cPent)][Sar][hPhe(3-Cl-4-CF3)]P[Ac5c][NMeGly(cPent)][NMeD]-Morpholide; lactam N-11), the IC50 stood at 0.85 nM.

For `CC[C@H](C)[C@@H]1NC(=O)[C@H](CC(C)C)N(C)C(=O)C[C@@H](C(=O)N2CCCCC2)N(C)C(=O)[C@H](C(C)C)N(C)C(=O)C2(CCCC2)NC(=O)[C@@H]2CCCN2C(=O)[C@H](CCc2ccc(C(F)(F)F)c(Cl)c2)NC(=O)CN(C)C(=O)[C@H](CC2CCCCC2)N(C)C(=O)[C@@H]2CCN2C(=O)[C@H](C)N(C)C1=O` [Compound 476] ([NMeL]I[NMeA][Aze][NMeCha][Sar][hPhe(3-Cl-4-CF3)]P[Ac5c][NMeV][NMeD]-Piperidide; lactam N-11), the IC50 was found to be 4.1 nM.

As for `CC[C@H](C)[C@@H]1NC(=O)[C@H](CC(C)C)N(C)C(=O)CCN(C)C(=O)[C@H](CC(C)C)NC(=O)C(C)(C)N(C)C(=O)[C@H](CC(C)C)NC(=O)[C@H](CCc2ccc(C(F)(F)F)c(F)c2)NC(=O)CN(C)C(=O)[C@H](CC2CCCCC2)N(C)C(=O)CN(C)C(=O)CN(C)C1=O` [Compound 832] (cyclo(I[Sar][Sar][NMeCha][Sar][hPhe(3-F,4-CF3)]L[NMeAib]L[NMeβAla][NMeL])), the IC50 was 120 nM. Next, `CC[C@H](C)[C@@H]1NC(=O)[C@H](CC(C)C)N(C)C(=O)C[C@H](C(=O)N2CCCC2)N(C)C(=O)[C@H](C2CCCC2)N(C)C(=O)C2(CCCC2)NC(=O)[C@@H]2CCCN2C(=O)[C@H](CCc2ccc(C(F)(F)F)c(Cl)c2)NC(=O)CN(C)C(=O)[C@H](Cc2ccc(C(F)(F)F)cc2)N(C)C(=O)[C@@H]2CCN2C(=O)[C@H](C)N(C)C1=O` [Compound 1765] ([NMeL]I[NMeA][Aze][NMePhe(4-CF3)][Sar][hPhe(3-Cl-4-CF3)]P[Ac5c][NMeGly(cPent)][dNMeD]-Pyrrolidide; lactam N-11): 74 nM; `CC[C@H](C)[C@@H]1NC(=O)[C@H](C)N(C)C(=O)C[C@@H](C)NC(=O)[C@H](CC(C)C)N(C)C(=O)[C@H](Cc2ccccc2)N(C)C(=O)[C@H](C(C)(C)C)NC(=O)[C@H](CCc2ccc(C(F)(F)F)cc2)NC(=O)CN(C)C(=O)[C@H](Cc2ccc(Cl)cc2)N(C)C(=O)CN(C)C(=O)CN(C)C1=O` [Compound 764] (cyclo(I[Sar][Sar][NMePhe(4-Cl)][Sar][hPhe(4-CF3)][Tle][NMeF][NMeL][d(β3hA)][NMeA])): 83 nM; `CC[C@H](C)[C@@H]1NC(=O)[C@H](C(C)C)N(C)C(=O)[C@@H]2CCC[C@H]2NC(=O)[C@H](CC(C)C)N(C)C(=O)C2(CCCC2)NC(=O)[C@H](CC(C)C)N(C)C(=O)[C@H](CCc2ccc(C(F)(F)F)cc2)NC(=O)CN(C)C(=O)[C@H](Cc2ccc(Cl)cc2)N(C)C(=O)CN(C)C(=O)CN(C)C1=O` [Compound 996] (cyclo([Ac5c][NMeL][X67][NMeV]I[Sar][Sar][NMePhe(4-Cl)][Sar][hPhe(4-CF3)][NMeL])): 90 nM. Next, `CC[C@H](C)[C@@H]1NC(=O)[C@H](CC(C)C)N(C)C(=O)C[C@@H](C(=O)N2CCC(C)CC2)NC(=O)[C@H](C(C)C)N(C)C(=O)C2(CCCC2)NC(=O)[C@@H]2CCCN2C(=O)[C@H](CCc2ccc(C(F)(F)F)c(Cl)c2)NC(=O)CN(C)C(=O)[C@H](CC2CCCCC2)N(C)C(=O)[C@@H]2CCN2C(=O)[C@H](C)N(C)C1=O` [Compound 1161] ([NMeL]I[NMeA][Aze][NMeCha][Sar][hPhe(3-Cl-4-CF3)]P[Ac5c][NMeV]D-{Piperidide(4-Me)}; lactam N-11): 60 nM.

For orientation: IC50 means the point on the concentration scale where inhibition reaches its midpoint.
